Data set [1] can be described thus: Half-life determination in human liver microsomes. It counts as in vitro ADME. To be noted: human, 1 μM, NADPH. The procedure: Human microsomes from a pool of 10 donors was obtained from a commercial source. Microsomes prepared in potassium phosphate buffer were spiked with ulixertinib, Formula 18, Formula 19, and Formula 21 individually in replicates of six at a final concentration of 1 μM. NADPH was used to initiate the experiment; a control of minus NADPH (minus cofactor) was also run in parallel to the human liver microsome stability. After spiking with test article, microsome replicates were placed in a 37° C. incubator with the following time course: 0, 5, 10, 15, 20, 30, 45 and 60 minutes. Samples were extracted with a protein precipitation quench consisting of ice cold acetonitrile containing internal standard (tolbutamide). Samples were analyzed for ulixertinib, Formula 18, Formula 19, and Formula 21. The half-lives of ulixertinib, Formula 18, Formula 19, and Formula 21 were characterized by the […] to determine the elimination rate (ke) and using the formula described below.
[formula] • ke (elimination rate): the slope of ln(percent remaining) vs time (in minutes)
(In general: Liver microsomes are vesicles of endoplasmic reticulum, rich in cytochrome P450 enzymes.)

Another data set deals with T1, CYP2B6 (Homo sapiens, UniProt P20813).
T1 construct: from tissue; host or cells: human liver microsomes, mixed-gender pool of 200
T1 sequence (P20813 1-491): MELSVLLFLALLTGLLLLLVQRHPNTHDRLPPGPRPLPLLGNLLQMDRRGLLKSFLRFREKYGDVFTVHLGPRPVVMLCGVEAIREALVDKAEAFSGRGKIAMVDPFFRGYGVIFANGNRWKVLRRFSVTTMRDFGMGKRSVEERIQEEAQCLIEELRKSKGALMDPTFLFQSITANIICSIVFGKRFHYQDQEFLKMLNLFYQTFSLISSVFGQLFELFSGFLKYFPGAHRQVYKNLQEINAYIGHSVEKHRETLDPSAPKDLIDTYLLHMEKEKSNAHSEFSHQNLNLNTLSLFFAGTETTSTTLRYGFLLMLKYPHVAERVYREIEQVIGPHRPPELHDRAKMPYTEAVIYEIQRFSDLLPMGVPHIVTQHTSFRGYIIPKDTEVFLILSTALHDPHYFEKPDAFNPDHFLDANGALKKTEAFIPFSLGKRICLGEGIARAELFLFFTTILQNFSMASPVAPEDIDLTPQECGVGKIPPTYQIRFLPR
As to the kind of experiment: In-vitro CYP inhibition study, CYP2B6. Particulars: human liver microsomes, substrate Bupropion (90 μM). It counts as in vitro ADME. The procedure:
(§1) Incubations were conducted using a cocktail of seven prototypical CYP substrates to ascertain the potential of each test article to inhibit the metabolism of concomitantly administered drugs. A mixed-gender pool of 200 human liver microsomal samples was used for this study. Incubations were conducted at approximately 37° C. in 200 μL incubation mixtures (pH 7.4) containing water, potassium phosphate buffer (50 mM), MgCl2 (3 mM), EDTA (1 mM), an NADPH regenerating system (NADP [1 mM], glucose 6 phosphate [5 mM], glucose 6 phosphate dehydrogenase [1 Unit/mL]), and probe substrate (i.e., a seven substrate cocktail) at the final concentrations indicated in Table 9. Reactions were initiated by the addition of NADPH-regenerating system and were automatically terminated at approximately 5 minutes by the addition of internal standard mixed in stop reagent, acetonitrile. The samples were centrifuged at 920×g for 10 minutes at 10° C. The supernatant fractions were analyzed by LC-MS/MS. To examine its ability to act as a time-dependent inhibitor of CYP enzymes, each test article (at the same concentrations used to evaluate direct inhibition, (i.e. 0, 0.02, 0.06, 0.2, 0.6, 2, 6, 20 μM) was pre-incubated at 37±2° C. with NADPH-fortified human liver microsomes for approximately 30 minutes. The pre-incubations were initiated by the addition of NADPH-regenerating system. After 30 min, probe substrate incubations were initiated by the addition of probe substrate cocktail. Incubations were terminated and samples were analyzed by LC-MS/MS. When inhibition was observed, the data were processed with a LIMS for the determination of IC50 values by utilizing the Levenberg-Marquardt algorithm to perform non-linear regression fitting of the data to the following 4-parameter sigmoidal-logistic IC50 equation:
(§2) As percent of control values are utilized, the minimum value (Min) is set to zero and the maximum value (Max) is set to 100 (or other values, as appropriate). The LIMS calculates an IC50 value only when it lies within the concentration range of the inhibitor studied. Therefore, when an IC50 value falls outside the concentration range studied, the IC50 values are reported to be greater than the highest concentration of the test article evaluated.

Another data set addresses T2, CYP2C19 (Homo sapiens, UniProt P33261).
T2 construct: from tissue; host or cells: human liver microsomes, mixed-gender pool of 200
Briefly: In-vitro CYP inhibition study, CYP2C19. It is filed as in vitro ADME. To be noted: human liver microsomes, substrate S-Mephenytoin (60 μM). The procedure: as §1, §2

A further data set has as its target T3, CYP2C9 (Homo sapiens, UniProt P11712).
T3 construct: from tissue; host or cells: human liver microsomes, mixed-gender pool of 200
As to the kind of experiment: In-vitro CYP inhibition study, CYP2C9. It is filed as in vitro ADME. Particulars: human liver microsomes, substrate Diclofenac (12 μM). The procedure:
as §1, §2

The next data set concerns the target T4, CYP2D6 (Homo sapiens, UniProt P10635).
T4 construct: from tissue; host or cells: human liver microsomes, mixed-gender pool of 200
Briefly: In-vitro CYP inhibition study, CYP2D6. It is filed as in vitro ADME. To be noted: human liver microsomes, substrate Dextramethorphan (10 μM). The procedure:
as §1, §2

The test system of data set [2] is CYP1A2 mRNA expression. Particulars: human, hepatocytes, 24 h.
Experimental: (§3) A single preparation of characterized cryopreserved human hepatocytes isolated from non-transplantable human livers was treated in this study. Triplicate wells for each of the cultures were treated in 48-well plates with supplemented MCM (37±2° C.) containing 0.1% v/v DMSO (solvent control), one of three concentrations of each test article (1, 10 and 20 μM) or positive control CYP enzyme inducers omeprazole (50 μM), phenobarbital (1000 μM) or rifampin (20 μM). The cultures were incubated in a humidified culture chamber (37±2° C. at 95% relative humidity, 95/5% air/CO2). Approximately 24 h after treatment, hepatocytes were lysed in Buffer RLT reagent containing β-mercaptoethanol (100:1). The medium was aspirated, and Buffer RLT was added to each well. The cell lysates were prepared by repeated pipetting and shaking. Total RNA was isolated using the RNeasy Mini Kit. RNA quality and concentration were determined by measuring absorbance at 260 and 280 nm on a plate reader. Single-stranded cDNA was prepared from RNA with the RT Master Mix. The RT Master Mix comprises 10×RT buffer, 25× deoxyNTPs, 10× Random primers, RNase Inhibitor (20 U/μL), MultiScribe reverse transcriptase (50 U/μL) and RNase-free water. The RT Master Mix was added to each RNA sample to complete the components of the reaction. No template controls (NTCs) were included in the analysis. For the NTC reactions, RNase-free water was added in place of the RNA sample. The prepared cDNA samples were stored at −20±5° C. following analysis by qRT-PCR. Each PCR was performed in quadruplicate. A Primer Mix was prepared for each Gene Expression assay. A typical Primer Mix contained TaqMan Fast Advanced Master Mix (1×), Gene Expression Assay (1×, 900 nM forward and reverse primers) and RNase-free water. The Reaction Mix was prepared by adding the Primer Mix to cDNA. A percentage of samples (no less than 10%) included NAC (no amplification control) samples. […] Reactions were analyzed on a PCR sequence detection system. The relative quantity of the target cDNA compared with that of the control cDNA (GAPDH) was determined by the ΔΔCt method. Relative quantitation measures the change in mRNA expression in a test sample relative to that in a control sample (e.g., DMSO). This method assumes that the efficiency of the target amplification and the efficiency of the endogenous control amplification are approximately equal.
For data set [3], the system named is CYP2B6 mRNA expression. To be noted: human, hepatocytes, 24 h.
Experimental: as §3
The test system of data set [4] is CYP3A4 mRNA expression. Particulars: human, hepatocytes, 24 h.
Experimental: as §3
For data set [5], the system named is CYP1A2 mRNA expression. As to the kind of experiment: In-vitro CYP induction study, CYP1A2 mRNA in cultured human hepatocytes. To be noted: 10 μM, approximately 24 h.
Experimental: as §3
Data set [6] deals with CYP2B6 mRNA expression. As to the kind of experiment: In-vitro CYP induction study, CYP2B6 mRNA in cultured human hepatocytes. Particulars: 20 μM, approximately 24 h.
Experimental: as §3
For data set [7], the system named is CYP3A4 mRNA expression. Briefly: In-vitro CYP induction study, CYP3A4 mRNA in cultured human hepatocytes. Particulars: 20 μM, approximately 24 h.
Experimental: as §3

Where two headings read alike, the source gives them in different places.

T2 sequence (P33261 whole entry): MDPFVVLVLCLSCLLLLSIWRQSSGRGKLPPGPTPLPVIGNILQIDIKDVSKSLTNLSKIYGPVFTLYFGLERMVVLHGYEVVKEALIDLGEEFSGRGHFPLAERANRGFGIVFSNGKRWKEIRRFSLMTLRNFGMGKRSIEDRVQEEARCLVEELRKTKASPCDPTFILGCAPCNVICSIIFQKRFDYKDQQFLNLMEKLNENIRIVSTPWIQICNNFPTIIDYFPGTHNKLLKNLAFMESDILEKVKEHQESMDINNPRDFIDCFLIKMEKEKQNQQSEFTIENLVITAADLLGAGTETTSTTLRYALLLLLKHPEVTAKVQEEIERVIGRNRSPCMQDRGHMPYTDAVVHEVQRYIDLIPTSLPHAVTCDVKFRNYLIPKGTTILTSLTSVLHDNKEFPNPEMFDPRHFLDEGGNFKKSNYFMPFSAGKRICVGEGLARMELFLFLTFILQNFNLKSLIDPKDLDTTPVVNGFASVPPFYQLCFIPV
T3 sequence (P11712 whole entry): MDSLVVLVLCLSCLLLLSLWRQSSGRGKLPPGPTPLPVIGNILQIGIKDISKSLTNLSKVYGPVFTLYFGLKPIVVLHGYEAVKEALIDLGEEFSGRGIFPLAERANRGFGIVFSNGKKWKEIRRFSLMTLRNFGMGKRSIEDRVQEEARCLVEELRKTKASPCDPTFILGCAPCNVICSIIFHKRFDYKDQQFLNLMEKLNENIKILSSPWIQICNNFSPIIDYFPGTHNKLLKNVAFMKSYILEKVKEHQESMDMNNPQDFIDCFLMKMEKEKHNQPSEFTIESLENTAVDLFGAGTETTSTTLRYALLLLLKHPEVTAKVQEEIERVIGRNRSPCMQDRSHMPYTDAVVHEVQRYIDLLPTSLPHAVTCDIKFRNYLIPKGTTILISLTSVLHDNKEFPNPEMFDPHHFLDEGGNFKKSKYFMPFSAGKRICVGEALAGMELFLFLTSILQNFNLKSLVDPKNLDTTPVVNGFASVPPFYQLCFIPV
T4 sequence (P10635 whole entry): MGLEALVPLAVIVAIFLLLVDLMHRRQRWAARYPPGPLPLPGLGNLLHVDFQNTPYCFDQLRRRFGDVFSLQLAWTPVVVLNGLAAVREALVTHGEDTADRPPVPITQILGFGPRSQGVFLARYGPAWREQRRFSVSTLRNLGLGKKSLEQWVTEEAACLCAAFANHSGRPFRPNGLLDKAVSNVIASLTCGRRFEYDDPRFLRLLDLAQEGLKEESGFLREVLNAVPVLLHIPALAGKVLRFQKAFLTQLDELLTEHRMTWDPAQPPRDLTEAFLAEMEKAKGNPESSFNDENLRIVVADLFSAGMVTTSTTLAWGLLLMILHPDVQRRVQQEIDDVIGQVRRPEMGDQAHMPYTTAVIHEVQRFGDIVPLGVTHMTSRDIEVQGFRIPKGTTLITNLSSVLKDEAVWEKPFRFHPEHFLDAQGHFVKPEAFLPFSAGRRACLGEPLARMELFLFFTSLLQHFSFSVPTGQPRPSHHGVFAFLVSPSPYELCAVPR

Turning to `CC(C)Nc1cc(-c2c[nH]c(C(=O)N[C@H](CO)c3cccc(Cl)c3)c2)c(Cl)cn1` [Ulixertinib, reference compound], the half-life at 1 μM in data set [1] (Rep 1, read-out: Half-life, t½, Rep 1) stood at 49.2 min; in data set [1] (Rep 2, read-out: Half-life, t½, Rep 2) it was 51.2 min; in data set [1] (Rep 3, read-out: Half-life, t½, Rep 3) it was 50.3 min; in data set [1] (Rep 4, read-out: Half-life, t½, Rep 4), 46.2 min; in [1] (Rep 5, read-out: Half-life, t½, Rep 5), 48.5 min; in data set [1] (Rep 6, read-out: Half-life, t½, Rep 6), 48.1 min. The half-life at 1 μM in data set [1] (six replicates, read-out: Half-life, t½, Mean ± SD) was determined as 48.9 ± 1.8 min. Further, the IC50 against CYP2B6 (preincubation 0 min) worked out at 11 µM; against CYP2B6 (preincubation 30 min), 16 µM; against CYP2C19 (preincubation 0 min), 8.5 µM; against CYP2C19 (preincubation 30 min) it was 9.2 µM; on CYP2C9 (preincubation 0 min), 3.1 µM; at CYP2C9 (preincubation 30 min), 3.4 µM. In addition, the IC50 on CYP2D6 (preincubation 0 min) was greater than 20 µM; against CYP2D6 (preincubation 30 min), 18 µM. Moreover, the “Fold Change in mRNA Expression of CYP1A2” value with CYP1A2 mRNA expression [2] (1 μM) worked out at 3.73 fold; in the data set on CYP1A2 mRNA expression [2] (20 μM), 6.42 fold; with CYP1A2 mRNA expression [5], 6.63 fold. Also, the “Fold Change in mRNA Expression of CYP2B6” value in the data set with CYP2B6 mRNA expression [3] (1 μM) came out at 1.25 fold; in the data set on CYP2B6 mRNA expression [3] (10 μM), 1.99 fold; with CYP2B6 mRNA expression [6], 2.43 fold. In addition, the “Fold Change in mRNA Expression of CYP3A4” value was 1.52 fold in the data set with CYP3A4 mRNA expression [4] (1 μM), 6.84 fold in the data set with CYP3A4 mRNA expression [4] (10 μM) and 8.26 fold in the data set with CYP3A4 mRNA expression [7].

Broadly, the half-life is how long it takes for the measured level to halve. The term IC50 denotes the concentration that gives 50% inhibition. Read a high IC50 as lower potency.

The record behind these values is US20250026733A1, “DEUTERATED ANALOGS OF PYROLE INHIBITORS OF ERK, SYNTHESIS THEREOF AND INTERMEDIATES THERETO” (BIOMED VALLEY DISCOVERIES, INC., priority 2022, published 2025).
